Measurements: US20260174778A1, “SULFONAMIDE COMPOUND, AND PREPARATION METHOD THEREFOR AND USE THEREOF” (SHANGHAI HENLIUS BIOTECH, INC., priority 2023, published 2026)

System: breast cancer cell line ZR-75-1
Assay: Inhibition of proliferation of breast cancer cell line ZR-75-1 (CellTiter-Glo)
Assay type: cell-based
Settings: Homo sapiens, 240 h, proliferation of ZR-75-1 cells, 10 days of incubation, read-out: IC50 (KAT6A)

SMILES | IC50
COc1ccc2c(c1S(=O)(=O)Nc1noc3cc(Cn4cccn4)c(F)c(OC)c13)OCCN2C [Compound 109, N-(6-((1H-Pyrazol-1-yl)methyl)-5-fluoro-4-methoxybenzo[d]isoxazol-3-yl)-7-methoxy-4-methyl-3,4-dihydro-2H-benzo[b][1,4]oxazine-8-sulfonamide] | < 500 pM
COc1ccccc1S(=O)(=O)Nc1noc2cc(Cn3cccn3)cc(OC)c12 [PF-8144, reference compound] | 500 to 2000 pM
COc1ccc2c(c1S(=O)(=O)Nc1noc3cc(Cn4cccn4)c(F)c(OC)c13)OCCC2=O [Compound 42, N-(6-((1H-Pyrazol-1-yl)methyl)-5-fluoro-4-methoxybenzo[d]isoxazol-3-yl)-7-methoxy-4-oxochromane-8-sulfonamide] | < 500 pM
COc1ccc2c(c1S(=O)(=O)Nc1noc3cc(Cn4cccn4)c(F)c(OC)c13)OCCO2 [Compound 28, N-(6-((1H-Pyrazol-1-yl)methyl)-5-fluoro-4-methoxybenzo[d]isoxazol-3-yl)-6-methoxy-2,3-dihydrobenzo[b][1,4]dioxine-5-sulfonamide] | < 500 pM
COc1ccc2c(c1S(=O)(=O)Nc1noc3cc(Cn4cccn4)c(F)c(OC)c13)OCC=C2 [Compound 101, N-(6-((1H-Pyrazol-1-yl)methyl)-5-fluoro-4-methoxybenzo[d]isoxazol-3-yl)-7-methoxy-2H-chromene-8-sulfonamide] | < 500 pM
